Source: patent US10509041B2, “Glucose derivative, and cell imaging method and imaging agent using said derivative” (HIROSAKI UNIVERSITY, priority 2014, dated 2019)
Where “and” joins values, the source holds several entries; their conditions need not be identical. Equal entries are not always repeated.

How the values were obtained:
[1] = test system: mouse insulinoma cells (MIN6); assay: Increase in fluorescence intensity (uptake) after administration of fluorescent glucose derivative to MIN6 cells, influence of cytochalasin B (CB) or phloretin (PHT), fluorescence microplate reader; format: cell-based; conditions: 2-NBDG 200 μM, 5 minutes; PHT 150 μM; MIN6 13 days of culture; average, two independent experiments
[2] = test system: mouse insulinoma cells (MIN6); assay: as above; format: cell-based; conditions: 2-NBDG 200 μM, 5 minutes; CB 10 μM; MIN6 13 days of culture; average, two independent experiments
Procedure: Increase in fluorescence intensity caused by the administration of CDG, and the influence of a glucose transporter (GLUT) inhibitor CB thereon were confirmed by targeting MIN6 cells.
A 96-well clear-bottom plate having wells of 8 rows (A to H) and 12 columns (1 to 12) (μClear-PLATE, Greiner Bio-One, BLACK) was used in measurement. A culture solution containing MIN6 cells suspended at a density of 60×10^4 cells/mL was added dropwise at 10 μL/well to the central portion of the well, and then, the plate was left standing for 40 minutes in an incubator for fixation. The cells were cultured by the addition of a culture solution at 200 μL/well (6000 cells/well). For layout, the cells were seeded to wells B to H on the third column and wells A to G on the fifth column. Medium replacement was performed by replacing half the amount with a fresh one once every two days at 0 to 4 DIV (days in vitro) and every day at 5 DIV or later. […]
CDG and 2-NBDG were each independently administered to the wells on the third and fifth columns using an 8-channel pipette such that these derivatives were alternately placed on the same plate. Before the administration, the autofluorescence of each well was measured in advance using a fluorescence microplate reader (Flex Station, Molecular Devices, LLC). […] The measurement was conducted at Bottom Read, Averaging 3, and Photomultiplier sensitivity high. […]

O=[N+]([O-])c1ccc(N[C@H]2C(O)O[C@H](CO)[C@@H](O)[C@@H]2O)c2nonc12 (stereo partly drawn) [Compound 2-NBDG, 2-[N-(7-nitrobenz-2-oxa-1,3-diazol-4-yl)amino]-2-deoxy-D-glucose, reference compound]
fluorescence intensity in the presence of PHT relative to the absence of PHT [1]: 18.6% and 15.7% | fluorescence intensity in the presence of CB relative to the absence of CB [2]: 30.8% and 36.4%
